Experiment: xn = mol fraction of the nth substance listed
Conditions: 81.5 kPa

OCCNCCO + CC(=O)[O-].CC[n+]1ccn(C)c1
viscosity [mPa·s]
Conditions	293.15 K	303.15 K	313.15 K	323.15 K	333.15 K	343.15 K	353.15 K
x1 = 0.2	202	–	–	41.2	28.3	20.4	15.3
x1 = 0.4	197	108	65.2	42.4	–	21.2	15.9
x1 = 0.6	214	–	68.6	43.9	29.8	21.3	–
x1 = 0.8	–	175	95.6	56.8	36.1	24.4	–
x1 = 1	–	–	191	102	58.2	35.5	23

CC(=O)[O-].CC[n+]1ccn(C)c1 + CN(CCO)CCO
viscosity [mPa·s]
Conditions	293.15 K	303.15 K	313.15 K	323.15 K	333.15 K	343.15 K	353.15 K
x2 = 0	204	106	61.6	39.4	–	19.3	–
x2 = 0.2	193	105	63.5	41.3	28.6	20.7	15.7
x2 = 0.4	–	96	59.8	–	28.1	20.6	15.6
x2 = 0.6	128	76.2	48.8	33.2	23.6	17.5	13.4
x2 = 0.8	109	61.5	39.1	26.4	18.7	13.7	–

CN(CCO)CCO + CC(=O)[O-].CC[n+]1ccn(C)c1
x1 = 1
Conditions	viscosity [mPa·s]
303.15 K	58
323.15 K	22.1
333.15 K	14.9
343.15 K	10.4
353.15 K	7.4

CC(=O)[O-].CC[n+]1ccn(C)c1 + OCCNCCO
x2 = 0
Conditions	viscosity [mPa·s]
323.15 K	39.4
343.15 K	19.3
353.15 K	14.6

CC(=O)[O-].CC[n+]1ccn(C)c1 + CC(C)(N)CO
x2 = 0
Conditions	viscosity [mPa·s]
293.15 K	204
303.15 K	106
313.15 K	61.6
323.15 K	39.4
333.15 K	26.8
343.15 K	19.3
353.15 K	14.6

CC(C)(N)CO + CC(=O)[O-].CC[n+]1ccn(C)c1
viscosity [mPa·s]
Conditions	293.15 K	303.15 K	313.15 K	323.15 K	333.15 K	343.15 K	353.15 K
x1 = 0.2	198	104	60.3	38.3	26	18.6	13.5
x1 = 0.4	136	74.9	45.5	29.9	20.9	–	11.7
x1 = 0.6	94.7	–	33.2	–	15.7	–	8.8
x1 = 0.8	–	–	29.3	18.6	–	–	6.8
x1 = 1	–	–	54.4	25.5	14.6	9.2	5.9

Reference: a compilation of properties of binary mixtures (doi:10.1021/acs.jced.1c00387)
